The assay relates to rabbit anti-cAMP sera (antigen:antibody binding). The assay can be described thus: Scintillation proximity radioimmunoassay for cAMP: standard curves with lysis reagents and sequestrants. Conditions: for [125I]cAMP bound to SPA beads, counts per minute: no sequestrant; for restoration of antigen:antibody binding by different sequestrants: 2.5% (w/v) sequestrant, standards in 1% DTAB. Here is the method: All assays were carried out in microtitre plates compatible with a microtitre plate beta scintillation counter. Standards (50 μl; 0.2-12.8 pmol/well), antisera (50 μl; at 1:11000 dilution), tracer (50 ul; 10000-20000 cpm) are added to anti-rabbit coated SPA beads (50 μl; 20 mg/ml). Non-specific binding was determined in the absence of specific rabbit antisera. SPA anti-rabbit reagent is placed onto a magnetic stirrer to ensure a homogeneous suspension before pipetting. All wells contained a total volume of 200 μl. The plates were sealed and incubated at room temperature (15-30° C.) for 15-20 hours. The amount of [^125I]cAMP bound to the SPA fluomicrospheres was determined by counting in a microtitre plate beta scintillation counter for 2 minutes.
Experiments were set up with:— • a) Working standards (4-256 pmol/ml; 0.2-12.8 pmol/well) were prepared in assay buffer (0.05M sodium acetate buffer containing 0.01% sodium azide) only (control) or assay buffer containing lysis reagent (e.g. DTAB, CPC or SDS; see experiment 1) at various concentrations. • b) Rabbit anti-cAMP sera prepared in assay buffer only (control) or assay buffer containing sequestrating agent at various concentrations depending on the experiment. • c) Radioactive tracer: adenosine 3′ 5′-cyclic phosphoric acid 2′-O-succinyl-3-[^125I] iodotyrosine methyl ester prepared in assay buffer only (control) or assay buffer containing sequestrating agent at various concentrations depending on the experiment. • d) Donkey anti-rabbit IgG coupled to scintillation proximity fluomicrospheres prepared in assay buffer only (control) or assay buffer containing sequestrating agent at various concentrations depending on the experiment. Experiment 1: Inhibition of Antigen and Antibody Binding by Several Lysis Reagents Method
In these experiments, standard curves were prepared for cAMP using the SPA immunoassay technique, described above, where working standards of cAMP were prepared in several lysis reagents at 1% (w/v) or 2% (w/v) final concentration. The detergents investigated included dodecyl trimethyl ammonium bromide (DTAB; Sigma Chemical Co. D8638), benzethonium chloride (BZC; Aldrich; B470-8), cetyl pyridinium chloride (CPC; Sigma Chemical Co; C9002), sodium dodecyl sulphate (SDS, Sigma chemical Co; L4509) and N-dodecyl-N,N-dimethyl-3-ammonio-1-propanesulphonate (DDAPS; Sigma Chemical Co.; D4516).
In these experiments, standard curves for cAMP were prepared using the SPA immunoassay technique described above, where working standards of cAMP were prepared in 1% (w/v), 1.5% (w/v) or 2% (w/v) lysis reagents (DTAB, SDS or CPC). The control consisted of no lysis reagent or cyclodextrin added. The effect including 2.5% (w/v) alpha-cyclodextrin (alpha-CD) (Sigma Chemical Co.; C4642) on antigen:antibody binding was investigated. Here, tracer, antisera and SPA beads were prepared in assay buffer containing 2.5% (w/v) alpha-CD. A second control tested the effect of 2.5% (w/v) alpha-CD on the standard curve without addition of lysis reagent.
In this experiment, standard curves for cAMP were prepared using the SPA radioimmunoassay where working standards of cAMP were prepared in 1% (w/v) DTAB. The effect of including 1% (w/v), 2% (w/v), 2.5% (w/v) and 5% (w/v) alpha-cyclodextrin on antigen:antibody binding was investigated. Here, tracer, antisera and SPA beads were prepared in assay buffer containing alpha-CD at the above concentrations. The control consisted of no lysis or cyclodextrin added to the assay.
In this experiment, standard curves for cAMP were prepared using the SPA immunoassay technique where working standards were prepared 1% (wt) lysis reagent (DTAB). The effect of including 2.5% (w/v) alpha-cyclodextrin (CD) 2.5% (w/v) beta-cyclodextrin (beta-CD) (Sigma is Chemical Co.; C4767) and 2.5% (w/v) gamma-cyclodextrin (gamma-CD) (Sigma Chemical Co.; 4892) on antigen:antibody binding was investigated. […]

The mark [1] stands for this setting: 1% lysis reagent, 0.2 pmol cAMP/well.
Where [2] appears, read: 1% lysis reagent, 0.4 pmol cAMP/well.
[3] abbreviates: 1% lysis reagent, 0.8 pmol cAMP/well.
Where [4] appears, read: 1% lysis reagent, 1.6 pmol cAMP/well.
Where [5] appears, read: 1% lysis reagent, 3.2 pmol cAMP/well.
Setting [6] is: 1% lysis reagent, 6.4 pmol cAMP/well.
Setting [7] is: 1% lysis reagent, 12.8 pmol cAMP/well.
Setting [8] is: 1% lysis reagent, NSB (no specific antisera).
The mark [9] stands for this setting: 1% lysis reagent, Zero standard.
Where [10] appears, read: 2% lysis reagent, 0.2 pmol cAMP/well.
[11] abbreviates: 2% lysis reagent, 0.4 pmol cAMP/well.
[12] abbreviates: 2% lysis reagent, 0.8 pmol cAMP/well.
Setting [13] is: 2% lysis reagent, 1.6 pmol cAMP/well.
Where [14] appears, read: 2% lysis reagent, 3.2 pmol cAMP/well.
Setting [15] is: 2% lysis reagent, 6.4 pmol cAMP/well.
The mark [16] stands for this setting: 2% lysis reagent, 12.8 pmol cAMP/well.
[17] abbreviates: 2% lysis reagent, NSB (no specific antisera).
The mark [18] stands for this setting: 2% lysis reagent, Zero standard.

Experimental findings from US6900019B1, “In-situ cell extraction and assay method” (Amersham Biosciences UK Limited, priority 1997, dated 2005) are described below.

Several values for one entry are separate records, joined by “and”; a condition that tells them apart may be missing. Identical values can stand only once.

Consider `CC(C)(C)CC(C)(C)c1ccc(OCCOCC[N+](C)(C)Cc2ccccc2)cc1` [BZC, benzethonium chloride], for which the “[125I]cAMP bound to SPA beads, counts per minute” value (“[125I]cAMP bound … per minute” below) amounted to 644 cpm under setting [1]; 501 cpm under setting [2]; 473 cpm under setting [3]; 426 cpm under setting [4]; 261 cpm under setting [5]; 16 cpm under setting [6]. The “[125I]cAMP bound … per minute” value reads like this: under setting [7], 6 cpm; under setting [8], 111 cpm; under setting [9], 951 cpm; under setting [10], 308 cpm; under setting [11], 338 cpm; under setting [12], 222 cpm. For the same compound, the “[125I]cAMP bound … per minute” value reads like this: under setting [13], 156 cpm; under setting [14], 143 cpm; under setting [15], 96 cpm; under setting [16], 70 cpm; under setting [17], 117 cpm; under setting [18], 486 cpm.

On to `CCCCCCCCCCCC[N+](C)(C)CCCS(=O)(=O)[O-]` [DDAPS, N-dodecyl-N,N-dimethyl-3-ammonio-1-propanesulphonate], for which the “[125I]cAMP bound … per minute” value under setting [1] is 969 cpm and 762 cpm; the “[125I]cAMP bound … per minute” value under setting [2] was 849 cpm and 719 cpm; the “[125I]cAMP bound … per minute” value under setting [3] is 725 cpm and 689 cpm; the “[125I]cAMP bound … per minute” value under setting [4] was 610 cpm and 559 cpm; the “[125I]cAMP bound … per minute” value under setting [5] is 425 cpm and 446 cpm; the “[125I]cAMP bound … per minute” value under setting [6] was 311 cpm and 326 cpm. The “[125I]cAMP bound … per minute” value was 204 cpm and 173 cpm under setting [7]; 181 cpm and 137 cpm under setting [8]; 1109 cpm and 906 cpm under setting [9]; 416 cpm and 423 cpm under setting [10]; 426 cpm and 370 cpm under setting [11]; 429 cpm and 350 cpm under setting [12]. Also, the “[125I]cAMP bound … per minute” value runs as follows: under setting [13], 339 cpm and 290 cpm; under setting [14], 303 cpm and 252 cpm; under setting [15], 215 cpm and 194 cpm; under setting [16], 109 cpm and 115 cpm; under setting [17], 129 cpm and 130 cpm; under setting [18], 579 cpm and 510 cpm.

As for `CCCCCCCCCCCCOS(=O)(=O)[O-].[Na+]` [SDS, sodium dodecyl sulphate], the “[125I]cAMP bound … per minute” value by setting is: (1% lysis reagent, 0.2 pmol cAMP/well, sulphate) 1052 cpm and 1128 cpm; (1% lysis reagent, 0.4 pmol cAMP/well, sulphate) 973 cpm and 1052 cpm; (1% lysis reagent, 0.8 pmol cAMP/well, sulphate) 913 cpm and 973 cpm; (1% lysis reagent, 1.6 pmol cAMP/well, sulphate) 859 cpm and 913 cpm; (1% lysis reagent, 3.2 pmol cAMP/well, sulphate) 837 cpm and 859 cpm; under setting [6], 640 cpm. The “[125I]cAMP bound … per minute” value is 394 cpm under setting [7], 118 cpm under setting [8] and 1149 cpm under setting [9].

On to `OC[C@H]1O[C@@H]2O[C@H]3[C@H](O)[C@@H](O)[C@@H](O[C@H]4[C@H](O)[C@@H](O)[C@@H](O[C@H]5[C@H](O)[C@@H](O)[C@@H](O[C@H]6[C@H](O)[C@@H](O)[C@@H](O[C@H]7[C@H](O)[C@@H](O)[C@@H](O[C@H]8[C@H](O)[C@@H](O)[C@@H](O[C@H]1[C@H](O)[C@H]2O)O[C@@H]8CO)O[C@@H]7CO)O[C@@H]6CO)O[C@@H]5CO)O[C@@H]4CO)O[C@@H]3CO` [beta-cyclodextrin], for which the “restoration of antigen:antibody binding by different sequestrants” value was “less effective”.

As to `OC[C@H]1O[C@@H]2O[C@H]3[C@H](O)[C@@H](O)[C@@H](O[C@H]4[C@H](O)[C@@H](O)[C@@H](O[C@H]5[C@H](O)[C@@H](O)[C@@H](O[C@H]6[C@H](O)[C@@H](O)[C@@H](O[C@H]7[C@H](O)[C@@H](O)[C@@H](O[C@H]8[C@H](O)[C@@H](O)[C@@H](O[C@H]9[C@H](O)[C@@H](O)[C@@H](O[C@H]1[C@H](O)[C@H]2O)O[C@@H]9CO)O[C@@H]8CO)O[C@@H]7CO)O[C@@H]6CO)O[C@@H]5CO)O[C@@H]4CO)O[C@@H]3CO` [gamma cyclodextrin, gamma-cyclodextrin], the “restoration of antigen:antibody binding by different sequestrants” value is “restored binding to an optimal degree”.
